Molecular target: Histamine H2 (Homo sapiens, UniProt P25021)
Experiment: Selectivity panel, binding

Histamine H2, sequence (P25021 whole entry): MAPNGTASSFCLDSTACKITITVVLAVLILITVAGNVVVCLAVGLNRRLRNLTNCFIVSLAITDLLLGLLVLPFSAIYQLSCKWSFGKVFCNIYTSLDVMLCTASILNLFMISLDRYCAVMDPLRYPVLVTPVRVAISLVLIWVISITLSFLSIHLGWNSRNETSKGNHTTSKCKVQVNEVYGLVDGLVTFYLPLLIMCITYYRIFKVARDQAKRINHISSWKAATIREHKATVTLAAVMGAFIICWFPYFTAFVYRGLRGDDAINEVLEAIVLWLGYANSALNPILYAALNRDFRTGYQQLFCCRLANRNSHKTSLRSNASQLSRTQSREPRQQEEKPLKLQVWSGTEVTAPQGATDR

In the case of `c1cn(-c2cc(NC3=NC[C@@]4(CN5CCC4CC5)O3)ncn2)cn1` [BMS-933043, (2R)-N-(6-(1H-imidazol-1-yl)-4-pyrimidinyl)-4'H-spiro[4-azabicyclo[2.2.2]octane-2,5'-[1,3]oxazol]-2'-amine], the IC50 is reported as > 30 µM.

Source: article PMC4965148 (PLoS ONE, 2016)
